Data taken from ChEMBL document CHEMBL1201862, “PubChem BioAssay data set” (2004).
Calls of active or inactive are those of the source.

Experiments:
Bcl-2-related protein A1 = biological target: T1, Bcl-2-related protein A1 (Mus musculus, UniProt Q07440); assay type: functional;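 further: confirmatory dose–response counterscreen on Bfl-1, used to check hits from a UBC13 polyubiquitin inhibitor campaign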
T1 sequence (Q07440 whole entry): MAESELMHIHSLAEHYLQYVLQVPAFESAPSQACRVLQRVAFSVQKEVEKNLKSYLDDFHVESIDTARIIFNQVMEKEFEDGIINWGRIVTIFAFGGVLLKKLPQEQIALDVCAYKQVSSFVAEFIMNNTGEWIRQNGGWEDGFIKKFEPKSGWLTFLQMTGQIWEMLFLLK

[1] = microbe, parasite or virus in culture; assay type: functional; settings: Mycobacterium tuberculosis
[2] = Intein inhibitors as potential Tuberculosis drugs, a cytotoxicity screen. [Related pubchem assays (depositor defined):AID2221, AID2223, AID434968, AID435010, AID449749, AID449750, AID489010]; assay type: functional
[3] = cytotoxicity in HEK-293T cells, dose response, cytotoxicity control for TCR NF-kB inhibitor project, luminescence, T-cell screen hits (AID 489026); assay type: functional, cell-based;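 further: cells exposed to compound about 14 hours before the viability readout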
[4] = biological target: T2, Sphingosine 1-phosphate receptor 4 (Homo sapiens, UniProt O95977); assay: Fluorescence dose response cell-based high throughput screening assay for antagonists of the Sphingosine 1-Phosphate Receptor 4 (S1P4). [Related pubchem assays: 1524 (Confirmation in triplicates.), 1510 (Primary screen.)]; assay type: functional
T2 sequence (O95977 whole entry): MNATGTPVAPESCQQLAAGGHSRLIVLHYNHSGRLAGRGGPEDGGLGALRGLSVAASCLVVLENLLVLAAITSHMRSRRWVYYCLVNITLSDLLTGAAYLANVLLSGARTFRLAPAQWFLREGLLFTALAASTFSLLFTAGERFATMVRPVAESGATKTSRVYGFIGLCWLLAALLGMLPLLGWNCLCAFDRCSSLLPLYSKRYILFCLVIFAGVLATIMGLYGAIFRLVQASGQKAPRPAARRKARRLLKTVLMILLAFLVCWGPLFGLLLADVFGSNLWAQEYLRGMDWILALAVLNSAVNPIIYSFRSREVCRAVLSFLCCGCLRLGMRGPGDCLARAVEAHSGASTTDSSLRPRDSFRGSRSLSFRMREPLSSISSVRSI

Protein RecA = biological target: T3, Protein RecA (Mycobacterium tuberculosis, UniProt P9WHJ3); assay: GFP-RecA MOA-DTT Measured in Biochemical System Using Plate Reader - 2047-05_Inhibitor_Dose_DryPowder_Activity. [Related pubchem assays (depositor defined):AID2223]; set-up: species or system Mycobacterium tuberculosis H37Rv
T3 sequence (P9WHJ3 whole entry): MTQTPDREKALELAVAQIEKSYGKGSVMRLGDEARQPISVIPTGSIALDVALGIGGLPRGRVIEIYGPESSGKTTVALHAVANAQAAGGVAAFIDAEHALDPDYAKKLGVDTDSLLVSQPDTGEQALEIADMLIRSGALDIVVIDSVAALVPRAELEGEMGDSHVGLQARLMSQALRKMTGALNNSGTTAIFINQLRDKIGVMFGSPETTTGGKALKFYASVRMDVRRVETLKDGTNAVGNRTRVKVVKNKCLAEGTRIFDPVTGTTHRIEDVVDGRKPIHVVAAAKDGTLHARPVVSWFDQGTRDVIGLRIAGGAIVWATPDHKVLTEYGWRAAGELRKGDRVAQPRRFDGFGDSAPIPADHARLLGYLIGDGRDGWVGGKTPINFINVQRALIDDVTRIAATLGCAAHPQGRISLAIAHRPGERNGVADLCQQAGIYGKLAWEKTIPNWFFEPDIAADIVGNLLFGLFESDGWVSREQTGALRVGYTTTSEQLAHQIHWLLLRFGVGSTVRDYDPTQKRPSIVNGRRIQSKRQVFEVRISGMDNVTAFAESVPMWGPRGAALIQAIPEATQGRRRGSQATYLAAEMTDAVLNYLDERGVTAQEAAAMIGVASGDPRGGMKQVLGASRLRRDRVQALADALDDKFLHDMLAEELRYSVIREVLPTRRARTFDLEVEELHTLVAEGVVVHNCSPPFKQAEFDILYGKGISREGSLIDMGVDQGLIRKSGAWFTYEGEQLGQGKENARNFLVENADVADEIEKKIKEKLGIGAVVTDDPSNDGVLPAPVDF

Nonstructural protein 1 = Nonstructural protein 1 (Influenza A virus, UniProt Q194T2); assay type: functional, Influenza A virus (A/California/07/2009(H1N1))
Sequence of Nonstructural protein 1 (Q194T2 whole entry): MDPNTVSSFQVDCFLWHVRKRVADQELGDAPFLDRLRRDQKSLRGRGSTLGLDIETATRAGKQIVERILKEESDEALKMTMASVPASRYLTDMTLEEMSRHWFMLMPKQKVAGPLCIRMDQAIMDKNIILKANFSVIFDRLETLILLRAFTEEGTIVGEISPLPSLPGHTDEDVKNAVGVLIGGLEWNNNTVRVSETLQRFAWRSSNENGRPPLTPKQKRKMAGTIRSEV

[5] = biological target: Lysine-specific demethylase 4A (Homo sapiens, UniProt O75164); assay: JMJD2A histone demethylase inhibitors, dose response, selectivity assay for GASC-1 inhibitor project, biochemical, DELFIA europium, cherry-picked samples (AID 488840)
Sequence of Lysine-specific demethylase 4A (O75164 whole entry): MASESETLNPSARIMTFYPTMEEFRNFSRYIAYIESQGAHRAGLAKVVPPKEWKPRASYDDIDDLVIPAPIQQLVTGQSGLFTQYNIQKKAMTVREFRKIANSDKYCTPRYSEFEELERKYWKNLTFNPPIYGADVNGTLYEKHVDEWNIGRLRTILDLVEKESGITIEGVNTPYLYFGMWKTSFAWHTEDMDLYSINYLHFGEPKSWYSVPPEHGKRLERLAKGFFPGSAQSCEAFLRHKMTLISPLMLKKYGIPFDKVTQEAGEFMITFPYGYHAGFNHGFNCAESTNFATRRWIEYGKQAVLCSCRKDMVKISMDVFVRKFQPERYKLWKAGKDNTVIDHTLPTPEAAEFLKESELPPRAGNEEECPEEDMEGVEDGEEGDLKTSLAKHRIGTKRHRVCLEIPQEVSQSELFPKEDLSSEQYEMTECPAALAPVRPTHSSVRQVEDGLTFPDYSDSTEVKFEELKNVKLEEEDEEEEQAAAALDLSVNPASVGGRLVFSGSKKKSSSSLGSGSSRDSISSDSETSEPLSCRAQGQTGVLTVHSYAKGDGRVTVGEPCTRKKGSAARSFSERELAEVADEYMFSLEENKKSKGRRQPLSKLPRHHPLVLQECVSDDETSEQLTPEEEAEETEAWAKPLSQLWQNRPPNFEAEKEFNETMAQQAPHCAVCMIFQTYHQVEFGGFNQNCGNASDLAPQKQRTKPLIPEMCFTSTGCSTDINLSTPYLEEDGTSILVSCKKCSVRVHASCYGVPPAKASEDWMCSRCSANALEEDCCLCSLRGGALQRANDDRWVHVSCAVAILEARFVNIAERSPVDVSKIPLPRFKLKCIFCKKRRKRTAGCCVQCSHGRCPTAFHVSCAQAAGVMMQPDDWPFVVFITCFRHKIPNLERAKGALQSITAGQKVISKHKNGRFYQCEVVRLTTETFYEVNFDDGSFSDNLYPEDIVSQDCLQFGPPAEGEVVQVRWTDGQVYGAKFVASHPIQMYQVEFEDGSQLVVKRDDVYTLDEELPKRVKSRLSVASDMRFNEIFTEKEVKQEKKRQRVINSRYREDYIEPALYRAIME

Genome polyprotein = Genome polyprotein (dengue virus type 2, UniProt P29990); assay: Dengue-2 NS5 methyltransferase inhibitors, primary screen, biochemical, confirmation dose response (AID 588689); assay type: functional
Sequence of Genome polyprotein (P29990 2492-3391 limits assumed): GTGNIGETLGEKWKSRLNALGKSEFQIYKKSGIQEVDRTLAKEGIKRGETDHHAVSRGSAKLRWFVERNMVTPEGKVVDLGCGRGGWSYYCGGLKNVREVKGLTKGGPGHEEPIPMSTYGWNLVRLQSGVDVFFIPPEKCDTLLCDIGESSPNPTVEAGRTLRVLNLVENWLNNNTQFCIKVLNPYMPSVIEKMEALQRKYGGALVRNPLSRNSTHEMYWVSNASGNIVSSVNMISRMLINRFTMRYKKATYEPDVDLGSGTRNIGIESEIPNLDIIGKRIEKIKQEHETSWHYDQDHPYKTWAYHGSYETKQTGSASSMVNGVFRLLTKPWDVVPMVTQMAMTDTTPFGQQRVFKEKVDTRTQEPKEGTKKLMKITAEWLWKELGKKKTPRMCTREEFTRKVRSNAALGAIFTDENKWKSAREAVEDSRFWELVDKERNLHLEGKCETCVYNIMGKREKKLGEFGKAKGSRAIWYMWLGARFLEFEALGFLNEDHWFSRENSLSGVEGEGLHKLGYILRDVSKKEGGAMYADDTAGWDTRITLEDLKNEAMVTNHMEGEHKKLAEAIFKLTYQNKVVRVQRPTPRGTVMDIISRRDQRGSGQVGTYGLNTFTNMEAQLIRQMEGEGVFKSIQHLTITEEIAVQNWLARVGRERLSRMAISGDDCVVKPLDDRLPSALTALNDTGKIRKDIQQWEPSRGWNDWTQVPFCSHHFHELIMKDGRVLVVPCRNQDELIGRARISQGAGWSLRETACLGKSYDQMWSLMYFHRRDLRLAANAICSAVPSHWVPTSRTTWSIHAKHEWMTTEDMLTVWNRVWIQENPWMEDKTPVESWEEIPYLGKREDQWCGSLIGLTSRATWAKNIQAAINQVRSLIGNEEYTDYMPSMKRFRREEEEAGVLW

Caspase-7 = biological target: T4, Caspase-7 (Homo sapiens, UniProt P55210); assay: human caspase-7 inhibitors, dose response, selectivity assay for caspase-6 inhibitor project, biochemical, DEVD-R110 fluorescence, cherry-pick (AID 743295)
T4 sequence (P55210 whole entry): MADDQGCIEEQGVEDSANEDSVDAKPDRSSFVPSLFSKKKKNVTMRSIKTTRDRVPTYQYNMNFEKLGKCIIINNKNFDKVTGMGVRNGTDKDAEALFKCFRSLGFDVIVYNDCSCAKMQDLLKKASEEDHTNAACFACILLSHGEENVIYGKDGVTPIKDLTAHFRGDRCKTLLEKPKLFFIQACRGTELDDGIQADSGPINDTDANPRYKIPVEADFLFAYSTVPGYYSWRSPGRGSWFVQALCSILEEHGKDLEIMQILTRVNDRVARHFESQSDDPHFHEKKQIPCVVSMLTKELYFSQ

[6] = biological target: 1-phosphatidylinositol 4,5-bisphosphate phosphodiesterase beta-3 (Homo sapiens, UniProt Q01970); assay: Fluorescence-based biochemical high throughput dose response assay to identify inhibitors of phospholipase C isozymes (PLC-B3).
Sequence of 1-phosphatidylinositol 4,5-bisphosphate phosphodiesterase beta-3 (Q01970 whole entry): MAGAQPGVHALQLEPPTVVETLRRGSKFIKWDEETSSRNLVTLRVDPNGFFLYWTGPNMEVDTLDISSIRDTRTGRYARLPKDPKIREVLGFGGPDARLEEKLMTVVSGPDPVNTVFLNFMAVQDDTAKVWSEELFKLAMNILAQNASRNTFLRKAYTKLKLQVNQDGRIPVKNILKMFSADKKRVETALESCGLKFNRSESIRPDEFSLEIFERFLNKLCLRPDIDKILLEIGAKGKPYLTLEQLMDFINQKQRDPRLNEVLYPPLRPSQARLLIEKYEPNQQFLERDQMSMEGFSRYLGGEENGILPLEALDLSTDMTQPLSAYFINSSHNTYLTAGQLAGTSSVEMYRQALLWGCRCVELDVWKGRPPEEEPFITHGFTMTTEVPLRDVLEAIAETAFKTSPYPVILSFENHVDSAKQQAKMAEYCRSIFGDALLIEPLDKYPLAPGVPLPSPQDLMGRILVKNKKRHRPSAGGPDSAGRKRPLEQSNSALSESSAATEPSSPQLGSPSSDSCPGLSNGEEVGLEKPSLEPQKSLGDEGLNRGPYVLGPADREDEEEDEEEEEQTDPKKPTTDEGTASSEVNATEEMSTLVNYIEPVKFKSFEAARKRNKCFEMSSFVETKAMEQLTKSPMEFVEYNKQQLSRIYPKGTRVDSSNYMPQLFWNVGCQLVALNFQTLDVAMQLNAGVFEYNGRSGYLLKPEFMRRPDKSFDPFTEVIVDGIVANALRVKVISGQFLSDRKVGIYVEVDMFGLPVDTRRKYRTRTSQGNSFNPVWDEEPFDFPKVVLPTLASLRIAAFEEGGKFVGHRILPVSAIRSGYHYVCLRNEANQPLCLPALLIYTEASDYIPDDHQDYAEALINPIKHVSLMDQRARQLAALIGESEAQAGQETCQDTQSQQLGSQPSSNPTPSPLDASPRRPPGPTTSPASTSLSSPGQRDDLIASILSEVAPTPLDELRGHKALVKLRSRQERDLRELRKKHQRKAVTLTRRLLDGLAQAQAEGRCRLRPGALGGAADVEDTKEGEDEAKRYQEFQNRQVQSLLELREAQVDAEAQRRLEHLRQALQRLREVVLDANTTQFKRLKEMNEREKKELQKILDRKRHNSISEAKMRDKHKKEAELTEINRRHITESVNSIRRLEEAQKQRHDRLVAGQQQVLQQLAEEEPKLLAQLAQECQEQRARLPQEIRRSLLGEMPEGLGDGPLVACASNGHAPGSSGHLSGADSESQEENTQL

[7] = biological target: T5, Alkaline phosphatase, tissue-nonspecific isozyme (Homo sapiens, UniProt P05186); assay: TNAP enzyme inhibition by screening hits, dose response, selectivity assay for mouse IAP inhibitor project, biochemical, human TNAP, uHTS hits (AID 488906); assay type: functional
T5 sequence (P05186 whole entry): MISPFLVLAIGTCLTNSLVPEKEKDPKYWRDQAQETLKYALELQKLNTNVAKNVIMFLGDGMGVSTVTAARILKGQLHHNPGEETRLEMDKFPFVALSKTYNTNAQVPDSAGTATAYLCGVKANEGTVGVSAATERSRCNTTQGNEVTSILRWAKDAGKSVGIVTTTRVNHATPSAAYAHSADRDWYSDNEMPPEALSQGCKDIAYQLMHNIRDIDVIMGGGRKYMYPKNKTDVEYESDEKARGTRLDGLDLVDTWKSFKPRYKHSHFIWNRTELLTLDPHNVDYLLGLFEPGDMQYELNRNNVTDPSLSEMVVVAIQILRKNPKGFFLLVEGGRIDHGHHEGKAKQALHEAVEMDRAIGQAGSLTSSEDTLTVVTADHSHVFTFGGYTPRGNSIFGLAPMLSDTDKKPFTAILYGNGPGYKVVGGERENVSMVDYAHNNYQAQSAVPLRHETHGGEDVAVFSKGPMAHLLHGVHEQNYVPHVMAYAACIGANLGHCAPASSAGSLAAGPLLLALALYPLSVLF

For `CCCCCCCCCCOC(=O)C[n+]1c(COc2ccccc2OC)n(C)c2ccccc21`, which IC50 (Bcl-2-related protein A1) is on record?
Its IC50 is 18.4 µM (active).

Which results are given for `Cc1oc2c(c1C(=O)NCc1cccnc1)C(=O)c1ccccc1C2=O`?
CC50 [1]: 0.295 µM (active); CC50 [2]: 0.52 µM (active); IC50 [3]: 7.67 µM (active); IC50 [4]: 0.581 µM (active); AC50 (Protein RecA): 10.8 µM (active)

With `O=c1ccc2c(-c3ccccc3S(=O)(=O)O)c3ccc(O)c(O)c3oc-2c1O` [PYROGALLOL RED] as the molecule, how does the IC50 (Nonstructural protein 1) read?
The IC50 was 13.5 µM (active).

What about the AC50 [5] of the same molecule?
Its AC50 is 2.63 µM (active).

What about the IC50 (Genome polyprotein) of the same molecule?
Its IC50 is 4.06 µM (active).

And the AC50 (Caspase-7)?
The AC50 was > 70 µM (inactive).

And the IC50 [6]?
Its IC50 is > 40.8 µM (inactive).

What about the IC50 [7] of the same molecule?
Its IC50 is 24.1 µM (active).
